Here are results for 16 compounds from US20030216444A1, “Benzoylpyridine derivative or its salt, fungicide containing it as an active ingredient, its production process and intermediate for producing it” (priority 2000, published 2003).

The structures appear in SMILES notation.

In the case of `COc1cc(C)c(C(=O)c2c(OC)cnc(Cl)c2C(F)(F)F)c(OC)c1OC` [compound No. 123, 4-(2,3,4-trimethoxy-6-methylbenzoyl)-2-chloro-3-trifluoromethyl-5-methoxypyridine], the melting point lay within 117 to 119 °C.
`COc1cc(C)c(C(=O)c2c(C(F)(F)F)cc(Cl)nc2Cl)c(OC)c1OC` [compound No. 3, 3-(2,3,4-trimethoxy-6-methylbenzoyl)-2,6-dichloro-4-trifluoromethylpyridine] yielded a melting point of 81 to 83 °C.
Then `COc1cc(C)c(C(=O)c2c(Cl)nc(Cl)c(C(C)=O)c2C(F)(F)F)c(OC)c1OC` [compound No. 62, 5-(2,3,4-trimethoxy-6-methylbenzoyl)-3-acetyl-2,6-dichloro-4-trifluoromethylpyridine], with 109 to 112 °C.
Next, `COc1cc(C)c(C(=O)c2c(Cl)cncc2C(F)(F)F)c(OC)c1OC` [compound No. 102, 4-(2,3,4-trimethoxy-6-methylbenzoyl)-3-chloro-5-trifluoromethylpyridine]: 75 to 77 °C; `COc1cc(C)c(C(=O)c2c(OC)cnc(Cl)c2Cl)c(OC)c1OC` [compound No. 193, 4-(2,3,4-trimethoxy-6-methylbenzoyl)-2,3-dichloro-5-methoxypyridine]: 98 to 99 °C.
Next, `COc1cc(C)c(C(=O)c2c(Cl)cnc(Cl)c2Cl)c(OC)c1OC` [compound No. 186, 4-(2,3,4-trimethoxy-6-methylbenzoyl)-2,3,5-trichloropyridine]: 60 to 61 °C; `COc1cc(C)c(C(=O)c2c(Cl)cncc2Cl)c(OC)c1OC` [compound No. 191, 4-(2,3,4-trimethoxy-6-methylbenzoyl)-3,5-dichloropyridine]: 109 to 111 °C; `COc1cc(C)c(C(=O)c2c(Cl)cnc(Cl)c2C(F)(F)F)c(OC)c1OC` [compound No. 90, 4-(2,3,4-trimethoxy-6-methylbenzoyl)-2,5-dichloro-3-trifluoromethylpyridine]: 106 to 109 °C.
`COc1cc(C)c(C(=O)c2c(OC)cncc2C(F)(F)F)c(OC)c1OC` [compound No. 122, 4-(2,3,4-trimethoxy-6-methylbenzoyl)-3-methoxy-5-trifluoromethylpyridine]: the melting point was 103 to 106 °C.
Then `COc1cc(C)c(C(=O)c2cnccc2C(F)(F)F)c(OC)c1OC` [compound No. 7, 3-(2,3,4-trimethoxy-6-methylbenzoyl)-4-trifluoromethylpyridine], with 59 to 62 °C; and `COc1cc(C)c(C(=O)c2c(C(F)(F)F)ccnc2Cl)cc1OCc1ccccc1` [compound No. 27, 3-(5-benzyloxy-4-methoxy-2-methylbenzoyl)-2-chloro-4-trifluoromethylpyridine], with 116 to 117 °C.
Then `COc1cc(C)c(C(=O)c2c(OC)cnc(Br)c2C(F)(F)F)c(OC)c1OC` [compound No. 124, 4-(2,3,4-trimethoxy-6-methylbenzoyl)-2-bromo-3-trifluoromethyl-5-methoxypyridine], with 145 to 147 °C; and `COc1cc(C)c(C(=O)c2c(C(F)(F)F)ccnc2OC)cc1OC` [compound No. 32, 3-(4,5-dimethoxy-2-methylbenzoyl)-2-methoxy-4-trifluoromethylpyridine], with 125 to 127 °C.
Next, `COc1cc(C)c(C(=O)c2c(OC)cnc(Br)c2Cl)c(OC)c1OC` [compound No. 245, 4-(2,3,4-trimethoxy-6-methylbenzoyl)-2bromo-3-chloro-5-methoxypyridine]: 97 to 99 °C.
On to `COc1cc(C)c(C(=O)c2c(C)cncc2Br)c(OC)c1OC` [compound No. 228, 4-(2,3,4-trimethoxy-6-methylbenzoyl)-3-bromo-5-methylpyridine], for which the melting point lay within 88 to 93 °C.
On to `COc1cc(C)c(C(=O)c2c(C(F)(F)F)ccnc2Cl)c(OC)c1OC` [compound No. 11, 3-(2,3,4-trimethoxy-6-methylbenzoyl)-2-chloro-4-trifluoromethylpyridine], for which the melting point lay within 110 to 112 °C.

Broadly, the melting point is the temperature of the solid-liquid transition.
